The test system of the test is biosynthesis of cholesterol (rat liver homogenate). The test is described as follows: CSI screen (inhibition of sterol synthesis; incorporation of 14C-acetate into non-saponifiable lipid by rat liver homogenate). The conditions noted are these: 50% inhibition of sterol synthesis over a one-hour period. Type of test: biochemical. As for the experimental part: The ability of compounds of the present invention to inhibit the biosynthesis of cholesterol was measured by a method (designated CSI screen) which utilizes the procedure described by R. E. Dugan, et al, Archiv. Biochem. Biophys., (1972), 152, 21-27. In this method, the level of HMG-CoA enzyme activity in standard laboratory rats is increased by feeding the rats a chow diet containing 5% cholestryramine for four days, after which the rats are sacrificed.
The rat livers are homogenized, and the incorporation of […] into non-saponifiable lipid by the rat liver homogenate is measured. The micromolar concentration of compound required for 50% inhibition of sterol synthesis over a one-hour period is measured, and expressed as an IC50 value.

Each structure is given as a SMILES string.

The IC50 is the concentration that inhibits the measured activity by half. A higher IC50 goes with a need for much substance.

In turn, `C=C1CC2(C)CC1C(c1ccccc1)=C2/C=C/[C@@H](O)C[C@@H](O)CC(=O)OCC` (relative stereo) had a half-inhibitory concentration (IC50) of 440 nM.

Take `C=C1CC2(C)CC1C(c1ccccc1)=C2C=CC1CC(O)CC(=O)O1` (centres unmarked): the 50% inhibitory concentration (IC50) amounted to 440 nM.

These data come from patent US4906657A, “Bicyclo heptane and bicyclo octane substituted inhibitors of cholesterol synthesis” (Warner-Lambert Company, priority 1988, dated 1990).
